The record followed here is PMC6269038, “A Novel Class of Selective Acetylcholinesterase Inhibitors: Synthesis and Evaluation of (E)-2-(Benzo[d]thiazol-2-yl)-3-heteroarylacrylonitriles” (Molecules, 2012).

Where “and” joins values, the source holds several entries; their conditions need not be identical. Equal entries are not always repeated.

Experiment [1] concerns the target AChE (Electrophorus electricus) (Electrophorus electricus, UniProt O42275). Description: biochemical. Particulars: for IC50: AChE from Electrophorus electricus, average from three independent experiments, ^c = IC50 greater than 0.5 mg/mL.
Experiment [2] addresses T1, butyrylcholinesterase (BuChE) from equine serum (Equus caballus, UniProt P81908).
T1 construct: an AChE/BuChE solution (50 μL, 0.25 unit/mL) from Electroporus electricus and equine serum, respectively; from tissue; host or cells: equine serum
In words: BuChE inhibition, Ellman method, 96-well plates. In kind it is biochemical. Particulars: average from three independent experiments, ^c = IC50 greater than 0.5 mg/mL.

The target of a further experiment is AChE (Electrophorus electricus, UniProt O42275). In words: Kinetic characterization of AChE inhibition (Lineweaver-Burk, Ellman's method). In kind it is biochemical. Particulars: substrate acetylthiocholine; for type of AChE inhibition: Lineweaver-Burk plots, AChE 0.02U; for Vmax: in presence of inhibitor, nonlinear regression. The procedure: The kinetics of this new class of AChE inhibitors were studied in detail using compounds 7f and 7g as examples. The nature of AChE inhibition, caused by these two compounds, was investigated by the graphical analysis of steady-state inhibition data (Figure 2A,B). […] The values of Km and Vmax were calculated by nonlinear regression according to studies by Abell et al., where Vmax was maintained at the same value while Km value was increased.
Figure 2 Lineweaver-Burk plot of AChE (0.02U) with substrate acetylthiocholine, in the absence and presence of inhibitors 7g (A), 7f (B).
Kinetic characterization of AChE was performed by means of Ellman’s method. […]. Enzyme kinetic characterization studies were performed under same incubation conditions as described above using acetylthiocholine as substrate and DTNB was used as chromophoric reagent. A parallel control with no inhibitor in the mixture was used for comparison. Each concentration was analyzed in triplicate; and Lineweaver-Burk (1/V vs. 1/[S]) plot was constructed using Sigma Plot 10.0 version software.

Chain of AChE (O42275 24-633): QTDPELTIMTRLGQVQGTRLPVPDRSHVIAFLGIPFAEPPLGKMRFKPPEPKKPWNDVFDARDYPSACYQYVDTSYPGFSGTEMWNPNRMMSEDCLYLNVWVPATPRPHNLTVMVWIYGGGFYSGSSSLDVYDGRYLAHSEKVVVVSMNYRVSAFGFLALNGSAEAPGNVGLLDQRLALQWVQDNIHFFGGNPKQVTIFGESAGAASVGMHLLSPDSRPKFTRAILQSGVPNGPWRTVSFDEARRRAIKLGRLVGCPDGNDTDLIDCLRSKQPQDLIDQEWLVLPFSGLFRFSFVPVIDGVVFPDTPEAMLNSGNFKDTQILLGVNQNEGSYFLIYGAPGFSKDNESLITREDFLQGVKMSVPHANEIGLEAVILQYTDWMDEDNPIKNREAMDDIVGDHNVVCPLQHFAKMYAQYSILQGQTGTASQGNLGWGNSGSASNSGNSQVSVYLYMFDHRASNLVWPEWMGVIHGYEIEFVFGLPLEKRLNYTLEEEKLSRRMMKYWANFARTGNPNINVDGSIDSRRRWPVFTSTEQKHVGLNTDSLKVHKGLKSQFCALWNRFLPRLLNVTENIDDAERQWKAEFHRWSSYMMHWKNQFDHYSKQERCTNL
Chain of AChE (Electrophorus electricus) (O42275 24-633): as above
T1 sequence (P81908 whole entry): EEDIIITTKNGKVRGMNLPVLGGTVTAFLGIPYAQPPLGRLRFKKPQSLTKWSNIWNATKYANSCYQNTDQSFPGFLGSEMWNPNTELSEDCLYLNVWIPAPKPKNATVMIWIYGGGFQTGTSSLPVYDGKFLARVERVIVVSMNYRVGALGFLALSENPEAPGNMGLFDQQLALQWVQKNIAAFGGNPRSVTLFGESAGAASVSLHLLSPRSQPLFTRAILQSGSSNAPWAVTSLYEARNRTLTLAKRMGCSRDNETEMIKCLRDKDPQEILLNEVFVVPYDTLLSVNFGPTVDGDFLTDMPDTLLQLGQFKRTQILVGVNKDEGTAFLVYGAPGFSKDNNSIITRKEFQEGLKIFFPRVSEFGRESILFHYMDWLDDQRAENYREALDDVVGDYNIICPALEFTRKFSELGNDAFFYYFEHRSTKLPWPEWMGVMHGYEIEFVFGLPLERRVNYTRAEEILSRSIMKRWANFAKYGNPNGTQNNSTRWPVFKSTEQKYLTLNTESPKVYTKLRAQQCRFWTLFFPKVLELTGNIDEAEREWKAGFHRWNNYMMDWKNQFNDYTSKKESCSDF

With `N#C/C(=C\c1cc(-c2ccc(F)cc2)on1)c1nc2ccccc2s1` [7c, (E)-2-(Benzo[d]thiazol-2-yl)-3-[5-(4-fluorophenyl)isoxazol-3-yl]acrylonitrile], the IC50 was 699 ± 0.3 µM in experiment [1] and over 1440 µM in experiment [2].

Turning to `N#C/C(=C\c1ccccn1)c1nc2ccccc2s1` [7k, (E)-2-(Benzo[d]thiazol-2-yl)-3-(pyridin-2-yl)acrylonitrile], the IC50 in experiment [1] and in experiment [2] was over 1900 µM in each case.

As to `Cc1cc(/C=C(\C#N)c2nc3ccccc3s2)no1` [7a, (E)-2-(Benzo[d]thiazol-2-yl)-3-(5-methylisoxazol-3-yl)acrylonitrile], the IC50 in experiment [1] was 1274 ± 0.7 µM; in experiment [2], over 1870 µM.

For the molecule `N#C/C(=C\c1ncc[nH]1)c1nc2ccccc2s1` [7e, (E)-2-(Benzo[d]thiazol-2-yl)-3-(1H-imidazol-2-yl)acrylonitrile], the IC50 in experiment [1] is 303 ± 0.8 µM; in experiment [2] it was over 1980 µM.

With `N#C/C(=C\c1ccc(N2CCOCC2)cc1)c1nc2ccccc2s1` [7d, (E)-2-(Benzo[d]thiazol-2-yl)-3-(4-morpholin-4-ylphenyl)acrylonitrile], the IC50 was 504 ± 1 µM in experiment [1] and over 1440 µM in experiment [2].

In the case of `N#C/C(=C\c1ccc(-c2ccc(Cl)cc2)o1)c1nc2ccccc2s1` [7g, (E)-2-(Benzo[d]thiazol-2-yl)-3-[5-(4-chlorophenyl)furan-2-yl]acrylonitrile], the IC50 in experiment [1] amounted to 64 ± 0.6 µM. In addition, in experiment [1] (defined as IC50 (BuChE)/IC50 (AChE)), the “Selectivity for AChE (selectivity index)” value was 7.40. In experiment [2], this molecule came in with an IC50 of 474 µM. At AChE, the “type of AChE inhibition” value is recorded as “competitive inhibitors” and the Vmax was 0.2236.

`N#C/C(=C\c1ccco1)c1nc2ccccc2s1` [7i, (E)-2-(Benzo[d]thiazol-2-yl)-3-(2-furyl)acrylonitrile]: the IC50 is over 1980 µM in experiment [1] and 1883 ± 0.8 µM in experiment [2].

Regarding `Cc1nn(-c2ccccc2)c(Cl)c1/C=C(\C#N)c1nc2ccccc2s1` [7h, (E)-2-(Benzo[d]thiazol-2-yl)-3-(5-chloro-3-methyl-1-phenyl-1H-pyrazol-4-yl)acrylonitrile], the IC50 in experiment [1] and in experiment [2] was over 1330 µM in each case.

With `N#C/C(=C\c1cccnc1)c1nc2ccccc2s1` [7f, (E)-2-(Benzo[d]thiazol-2-yl)-3-(pyridin-3-yl)acrylonitrile], in experiment [1], the IC50 is 155 µM and 103 µM. In addition, the IC50 in experiment [2] was over 2290 µM. On AChE, the “type of AChE inhibition” value is reported as “competitive inhibitors” and the Vmax is 0.07078.

Consider `N#C/C(=C\c1cc(-c2ccccc2)on1)c1nc2ccccc2s1` [7b, (E)-2-(Benzo[d]thiazol-2-yl)-3-(5-phenylisoxazol-3-yl)acrylonitrile], for which the IC50 was determined as 1179 ± 0.5 µM in experiment [1] and 1396.6 ± 0.8 µM in experiment [2].

With `N#C/C(=C\c1ccc(-c2ccccc2)cc1)c1nc2ccccc2s1` [7j, (E)-2-(Benzo[d]thiazol-2-yl)-3-(1,1'-biphenyl-4-yl)acrylonitrile], the IC50 in experiment [1] was over 1480 µM; in experiment [2], 1273 ± 0.7 µM.
